# “Also recorded” adds a separate entry of the source.
# System: not given
# Conditions: acute pain models; chronic trials; cited from earlier work
row,Compound,Antinociception and opioid-induced tolerance (in words)
1,"H-Tyr-D-Ala-Gly-Phe-Met-Pro-Leu-Trp-NH-3′,5′-Bn(CF3)2 [compound 6]",enhanced antinociception in acute pain models and prevention of opioid-induced tolerance in chronic trials
2,"H-Tyr-D-Ala-Gly-Phe-Met-Pro-Leu-Trp-O-3′,5′-Bn(CF3)2 [compound 7]",enhanced antinociception in acute pain models and prevention of opioid-induced tolerance in chronic trials

# Target: human NK1 receptor (Homo sapiens, UniProt P25103)
# Sequence (P25103 whole entry): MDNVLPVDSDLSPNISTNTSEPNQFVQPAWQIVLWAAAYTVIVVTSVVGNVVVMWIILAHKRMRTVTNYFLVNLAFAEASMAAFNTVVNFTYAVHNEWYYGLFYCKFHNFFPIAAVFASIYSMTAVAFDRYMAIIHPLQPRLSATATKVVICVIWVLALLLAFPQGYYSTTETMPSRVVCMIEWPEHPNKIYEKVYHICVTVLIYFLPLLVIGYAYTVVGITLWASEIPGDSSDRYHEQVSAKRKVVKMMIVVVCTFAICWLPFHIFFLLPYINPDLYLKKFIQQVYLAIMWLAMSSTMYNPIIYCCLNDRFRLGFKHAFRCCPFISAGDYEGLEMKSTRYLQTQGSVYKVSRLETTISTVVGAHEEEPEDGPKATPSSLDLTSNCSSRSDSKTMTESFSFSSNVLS
# Format: cell-based
# Conditions: shift of the dose-response curve of SP, aequorin luminescence, CHO-NK1 cells
row,Compound,NK1R antagonism (in words)
1,"CC(=O)N[C@H]1Cc2ccccc2CN(CC(=O)N(C)Cc2cc(C(F)(F)F)cc(C(F)(F)F)c2)C1=O [compound 20, Ac-(S)-Aba-Gly-NMe-3′,5′-(CF3)2-Bn]",able to counteract the effect of SP and good
2,CC(=O)N1Cc2[nH]c3ccccc3c2C[C@H]1C(=O)N(C)Cc1cc(C(F)(F)F)cc(C(F)(F)F)c1 [32a],did not show any antagonist properties
3,CC(=O)N1Cc2ccccc2C[C@H]1C(=O)NCc1cc(C(F)(F)F)cc(C(F)(F)F)c1 [compound 22],lack of antagonism
4,"CC(=O)N[C@H]1Cc2ccccc2CN(CC(=O)NCc2cc(C(F)(F)F)cc(C(F)(F)F)c2)C1=O [compound 19, Ac-(S)-Aba-Gly-NH-3′,5′-(CF3)2-Bn]",able to counteract the effect of SP; also recorded: moderate
5,CC(=O)N[C@H]1Cc2c([nH]c3ccccc23)CN(Cc2cc(C(F)(F)F)cc(C(F)(F)F)c2)C1=O [compound 30],did not show any antagonist properties
6,"CC(=O)N1Cc2ccccc2C[C@H]1C(=O)N(C)Cc1cc(C(F)(F)F)cc(C(F)(F)F)c1 [compound 23, Ac-Tic-NMe-3′,5′-(CF3)2-Bn]",able to counteract the effect of SP and good
7,CC(=O)N[C@H]1Cc2c([nH]c3ccccc23)CN(CC(=O)N(C)Cc2cc(C(F)(F)F)cc(C(F)(F)F)c2)C1=O [28a],did not show any antagonist properties

# System: not given
# Conditions: cited from earlier work
row,Compound,Attenuation of neuropathic pain (in words)
1,"H-Tyr-D-Ala-Gly-Phe-Met-Pro-Leu-Trp-NH-3′,5′-Bn(CF3)2 [compound 6]",potently attenuate neuropathic pain without producing opioid-induced tolerance
2,"H-Tyr-D-Ala-Gly-Phe-Met-Pro-Leu-Trp-O-3′,5′-Bn(CF3)2 [compound 7]",potently attenuate neuropathic pain without producing opioid-induced tolerance

# Reference: paper PMC3096782 (Journal of medicinal chemistry, 2011)
